For 18 molecules, IC50 and EC50 results are on record in patent US11053250B2, “Pyrrolo[1,2-b]pyridazine derivatives” (Gilead Sciences, Inc., priority 2018, dated 2021).

For one assay, the target named is IRAK4 enzyme (Homo sapiens (Human), UniProt Q9NWZ3). The assay is described as follows: IRAK4 Biochemical Assay (TR-FRET/HTRF). Particulars: 0.75 nM IRAK4, 500 μM ATP, STK1 peptide. The method, then:
IRAK4 enzyme (Carna Biosciences, Chuo-ku, Kobe, Japan) activity was measured by detecting phosphorylated peptide substrate formation using an antibody against the phosphorylated peptide substrate. This is a time-resolved fluorescence resonance energy transfer (TR-FRET) immunoassay, based on the STK1 KinEASE Assay (Cisbio, Bedford, Mass.). The assay was designed as a simple two-step, endpoint assay (a 5 μl enzyme reaction followed by 5 μl stop and detect Solution) performed in ProxiPlate-384 Plus plates (Perkin Elmer, Waltham, Mass.). Staurosporine, a non-selective kinase inhibitor was used as a positive control. Compounds diluted in DMSO were spotted into 384 well plates using a Labcyte® Echo 550 Liquid Handling System prior to addition of IRAK4 enzyme and peptide substrate. Reaction solutions were delivered using a Multi-Flo (Bio-Tek Instruments). The enzyme and peptide solution was incubated with compound for 15 minutes at room temp before the reaction was initiated by the addition of ATP. The standard 5 μl reaction mixture contained 500 μM ATP, 2 μM peptide (STK1 Peptide), 0.75 nM of IRAK4 in reaction buffer (50 mM HEPES, pH 7.0, 0.02% NaN3, 0.01% BSA, 0.1 mM Orthovanadate, 5 mM MgCl2, 0.025% NP-40, 1 mM DTT). After 120 min of incubation at room temperature, 5 μl of Stop and Detect Solution (1:100 Cryptate labeled anti-phosphorylated peptide antibody solution and 125 nM Tracer in a 50 mM HEPES pH 7.0 detection buffer containing sufficient EDTA) was added. The plate was then further incubated for 60 minutes at room temperature and read on Envision 2103 Multilabeled reader (PerkinElmer) with excitation/emission/FRET emission at 340 nm/615 nm/665 nm, respectively. Fluorescence intensities at 615 nm and 665 nm emission wavelengths were expressed as a ratio (665 nm/615 nm). Percentage of inhibition was calculated as below: % Inhibition=100×(RatioSample−Ratio0% Inhibition)/(Ratio100% Inhibition−Ratio0% Inhibition)
The 0% inhibition value comes from control wells lacking inhibitor. The 100% inhibition value comes from control wells containing a saturating amount of known inhibitor staurosporine.
(TR-FRET usually uses a lanthanide donor and a delayed reading to cut background.)

The test system of another assay is TNFα. The assay is described as follows: IRAK4 Monocyte TNFα Cell Based Assay. The note with it: cryopreserved human monocytes, LPS 50 pg/ml stimulation, TNFα by TR-FRET. The method, then:
The cell suspension was then plated at a density of 5,000 cells/well onto black 384 well Greiner clear bottom plates. Plates were pre-spotted with test compounds and serially diluted in DMSO where 40 nL/well were delivered using the Echo 550 acoustic liquid dispenser (Labcyte®) for a final DMSO concentration of 0.1%. Plated cells were treated with compound for 1 hour at 37° C. Cells were then stimulated with 50 pg/ml of LPS (Sigma) excluding outside columns of plate used for unstimulated cell control wells. Cells were incubated for an additional 4 hours at 37° C. Cells were then spun out of the media and 5 μl of sample were taken and analyzed for total TNFα content using the TR-FRET Human TNFα detection system (CisBio). This system utilizes two labeled antibodies (cryptate and XL665) that bind to two different epitopes of the TNFα molecule and produce FRET signal proportional to the concentration of TNFα in the sample. Detection antibodies are mixed 50:50 and 5 μL were dispensed into each well. Plates were covered with clear seals and incubated at room temp overnight. The following morning plates were read using an Envision 2103 Multilabeled reader (PerkinElmer) with excitation/emission/FRET emission at 340 nm/615 nm/665 nm, respectively. Fluorescence intensities at 615 nm and 665 nm emission wavelengths were expressed as a ratio (665 nm/615 nm). Percent of control was calculated as follows: % Control=100×(RatioSample−Ratio0% stimulation)/(Ratio100% Stimulation−Ratio0% stimulation) where unstimulated cells (0% stimulation) were the negative control and stimulated cells (100% stimulation) were used as the positive control.

Chain of IRAK4 enzyme (Q9NWZ3 whole entry): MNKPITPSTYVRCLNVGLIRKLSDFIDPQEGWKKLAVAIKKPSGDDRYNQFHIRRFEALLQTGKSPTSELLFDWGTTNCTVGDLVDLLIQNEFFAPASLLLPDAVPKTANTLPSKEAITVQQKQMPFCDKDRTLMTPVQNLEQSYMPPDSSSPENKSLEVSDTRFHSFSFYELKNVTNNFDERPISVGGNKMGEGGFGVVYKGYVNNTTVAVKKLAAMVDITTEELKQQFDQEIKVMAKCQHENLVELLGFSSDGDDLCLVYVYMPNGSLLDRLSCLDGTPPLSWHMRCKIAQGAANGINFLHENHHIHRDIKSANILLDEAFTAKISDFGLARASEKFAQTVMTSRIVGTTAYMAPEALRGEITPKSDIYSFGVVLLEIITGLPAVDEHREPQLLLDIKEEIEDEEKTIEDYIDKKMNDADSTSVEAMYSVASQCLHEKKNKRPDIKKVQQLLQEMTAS

As usually defined, the IC50 is the midpoint of a concentration-inhibition curve. Low values mean inhibition by little substance, high ones a need for much substance. In general, EC50 refers to the concentration at which the effect is half-maximal. Turning to `CC(C)Nc1cc(-c2ccc3cc(C#N)cnn23)ncc1-c1cn(CC(C)(C)O)nn1` [Compound 50, 7-(5-(1-(2-hydroxy-2-methylpropyl)-1H-1,2,3-triazol-4-yl)-4-(isopropylamino)pyridin-2-yl)pyrrolo[1,2-b]pyridazine-3-carbonitrile], on IRAK4 enzyme, the IC50 turned out to be 4 nM. In the assay on TNFα (Monocyte), this molecule yielded an EC50 of 238 nM.
Consider `COC(=O)NCC1CC(Nc2cc(-c3ccc4cc(C#N)cnn34)ncc2-c2cn(CC3CC(O)C3)nn2)C1` [Compound 8, methyl (((1R,3r)-3-((2-(3-cyanopyrrolo[1,2-b]pyridazin-7-yl)-5-(1-(((1s,3S)-3-hydroxycyclobutyl)methyl)-1H-1,2,3-triazol-4-yl)pyridin-4-yl)amino)cyclobutyl)methyl)carbamate], for which the IC50 against IRAK4 enzyme is under 1 nM. Also, in the assay with TNFα, the EC50 is 17 nM.
`CNc1cc(-c2ccc3cc(C#N)cnn23)ncc1-c1cn(C)nn1` [Compound 36, 7-(5-(1-methyl-1H-1,2,3-triazol-4-yl)-4-(methylamino)pyridin-2-yl)pyrrolo[1,2-b]pyridazine-3-carbonitrile] registered an IC50 on IRAK4 enzyme of 14 nM. In the assay with TNFα (Monocyte), this molecule yielded an EC50 of 324 nM.
As for `COC(=O)NC[C@H]1C[C@H](Nc2cc(-c3ccc4cc(C#N)cnn34)ncc2-c2cn(C[C@@H](F)C(C)(C)O)nn2)C1` [Compound 39, methyl (((1R,3r)-3-((2-(3-cyanopyrrolo[1,2-b]pyridazin-7-yl)-5-(1-((R)-2-fluoro-3-hydroxy-3-methylbutyl)-1H-1,2,3-triazol-4-yl)pyridin-4-yl)amino)cyclobutyl)methyl)carbamate], the IC50 on IRAK4 enzyme was under 1 nM. The EC50 in the assay on TNFα stood at 6 nM.
Turning to `COCCn1cc(-c2cnc(-c3ccc4cc(C#N)cnn34)cc2NC(C)C)nn1` [Compound 48, 7-(4-(isopropylamino)-5-(1-(2-methoxyethyl)-1H-1,2,3-triazol-4-yl)pyridin-2-yl)pyrrolo[1,2-b]pyridazine-3-carbonitrile], the IC50 against IRAK4 enzyme turned out to be 2 nM. This molecule had a concentration giving a half-maximal response (EC50) in the assay with TNFα (Monocyte) of 125 nM.
In the case of `COC(=O)NC[C@H]1C[C@H](Nc2cc(-c3ccc4cc(C#N)cnn34)ncc2-c2cn(CCC(C)(C)O)nn2)C1` [Compound 30, methyl (((1r,3r)-3-((2-(3-cyanopyrrolo[1,2-b]pyridazin-7-yl)-5-(1-(3-hydroxy-3-methylbutyl)-1H-1,2,3-triazol-4-yl)pyridin-4-yl)amino)cyclobutyl)methyl)carbamate], the IC50 on IRAK4 enzyme was under 1 nM. In the assay on TNFα, this molecule returned an EC50 of 4 nM.
With `CC(C)(O)[C@H](F)Cn1cc(-c2cnc(-c3ccc4cc(C#N)cnn34)cc2N[C@H]2CC[C@H](c3nncs3)CC2)nn1` [Compound 38, 7-(4-(((1r,4R)-4-(1,3,4-thiadiazol-2-yl)cyclohexyl)amino)-5-(1-((R)-2-fluoro-3-hydroxy-3-methylbutyl)-1H-1,2,3-triazol-4-yl)pyridin-2-yl)pyrrolo[1,2-b]pyridazine-3-carbonitrile], the IC50 against IRAK4 enzyme is under 1 nM. The same molecule had an EC50 in the assay with TNFα of 6 nM.
At IRAK4 enzyme, `COC(=O)NCC1CC(Nc2cc(-c3ccc4cc(C#N)cnn34)ncc2-c2cn(C3CC(CNC(=O)OC)C3)nn2)C1` [Compound 10, methyl (((1R,3r)-3-((2-(3-cyanopyrrolo[1,2-b]pyridazin-7-yl)-5-(1-((1r,3R)-3-(((methoxycarbonyl)amino)methyl)cyclobutyl)-1H-1,2,3-triazol-4-yl)pyridin-4-yl)amino)cyclobutyl)methyl)carbamate] came in with an IC50 of 1 nM. The EC50 with TNFα came to 20 nM.
At IRAK4 enzyme, `CC(C)Nc1cc(-c2ccc3cc(C#N)cnn23)ncc1-c1cn(CCN2CCOCC2)nn1` [Compound 47, 7-(4-(isopropylamino)-5-(1-(2-morpholinoethyl)-1H-1,2,3-triazol-4-yl)pyridin-2-yl)pyrrolo[1,2-b]pyridazine-3-carbonitrile] showed an IC50 of under 1 nM. In the assay with TNFα (Monocyte), it took 33 nM to reach a half-maximal effect (EC50).
Consider `CC(C)Nc1cc(-c2ccc3cc(C#N)cnn23)ncc1-c1cn(C2COC2)nn1` [Compound 53, 7-(4-(isopropylamino)-5-(1-(oxetan-3-yl)-1H-1,2,3-triazol-4-yl)pyridin-2-yl)pyrrolo[1,2-b]pyridazine-3-carbonitrile], for which the IC50 on IRAK4 enzyme is 2 nM. In addition, in the assay with TNFα (Monocyte), the EC50 came to 171 nM.
As for `CC(C)Nc1cc(-c2ccc3cc(C#N)cnn23)ncc1-c1cn(C(C)C)nn1` [Compound 51, 7-(5-(1-isopropyl-1H-1,2,3-triazol-4-yl)-4-(isopropylamino)pyridin-2-yl)pyrrolo[1,2-b]pyridazine-3-carbonitrile], the IC50 against IRAK4 enzyme was under 1 nM. Also, in the assay with TNFα (Monocyte), the concentration giving a half-maximal response (EC50) was determined as 132 nM.
`COC(=O)NC[C@H]1C[C@H](Nc2cc(-c3ccc4cc(C#N)cnn34)ncc2-c2cn(CC#N)nn2)C1` [Compound 16, methyl (((1r,3r)-3-((5-(1-(cyanomethyl)-1H-1,2,3-triazol-4-yl)-2-(3-cyanopyrrolo[1,2-b]pyridazin-7-yl)pyridin-4-yl)amino)cyclobutyl)methyl)carbamate]: the midpoint of inhibition against IRAK4 enzyme, the IC50, lay at 1 nM. Besides, the EC50 in the assay with TNFα came out at 33 nM.
On to `CC(C)Nc1cc(-c2ccc3cc(C#N)cnn23)ncc1-n1cc([C@H]2CC[C@H](NC(=O)OC(C)(C)C)CC2)nn1` [Compound 64, tert-butyl ((1r,4r)-4-(1-(6-(3-cyanopyrrolo[1,2-b]pyridazin-7-yl)-4-(isopropylamino)pyridin-3-yl)-1H-1,2,3-triazol-4-yl)cyclohexyl)carbamate], for which the IC50 against IRAK4 enzyme was determined as 2 nM. The molecule further had an EC50 in the assay with TNFα of 121 nM.
Regarding `CC(C)Nc1cc(-c2ccc3cc(C#N)cnn23)ncc1-c1cn(C)nn1` [Compound 55, 7-(4-(isopropylamino)-5-(1-methyl-1H-1,2,3-triazol-4-yl)pyridin-2-yl)pyrrolo[1,2-b]pyridazine-3-carbonitrile], on IRAK4 enzyme, the IC50 is 2 nM. In the assay on TNFα (Monocyte), this molecule displayed an EC50 of 162 nM.
`CC(C)Nc1cc(-c2ccc3cc(C#N)cnn23)ncc1-c1cn(C2CCN(C(=O)OC(C)(C)C)CC2)nn1` [Compound 46, tert-butyl 4-(4-(6-(3-cyanopyrrolo[1,2-b]pyridazin-7-yl)-4-(isopropylamino)pyridin-3-yl)-1H-1,2,3-triazol-1-yl)piperidine-1-carboxylate] gave an IC50 on IRAK4 enzyme of 7 nM. Besides, in the assay with TNFα (Monocyte), the EC50 was 534 nM.
At IRAK4 enzyme, `CC(C)Nc1cc(-c2ccc3cc(C#N)cnn23)ncc1-c1cn(CC(=O)N(C)C)nn1` [Compound 44, 2-(4-(6-(3-cyanopyrrolo[1,2-b]pyridazin-7-yl)-4-(isopropylamino)pyridin-3-yl)-1H-1,2,3-triazol-1-yl)-N,N-dimethylacetamide] had an IC50 of 1 nM. Further, the EC50 in the assay on TNFα (Monocyte) was 61 nM.
As for `COC(=O)NCC1CC(Nc2cc(-c3ccc4cc(C#N)cnn34)ncc2-c2cn(C3CC(O)C3)nn2)C1` [Compound 7, methyl (((1R,3r)-3-((2-(3-cyanopyrrolo[1,2-b]pyridazin-7-yl)-5-(1-((1r,3R)-3-hydroxycyclobutyl)-1H-1,2,3-triazol-4-yl)pyridin-4-yl)amino)cyclobutyl)methyl)carbamate], the IC50 at IRAK4 enzyme is under 1 nM. The molecule further returned an EC50 with TNFα of 12 nM.
At IRAK4 enzyme, `CC(C)Nc1cc(-c2ccc3cc(C#N)cnn23)ncc1-c1cn(-c2cccnc2)nn1` [Compound 52, 7-(4-(isopropylamino)-5-(1-(pyridin-3-yl)-1H-1,2,3-triazol-4-yl)pyridin-2-yl)pyrrolo[1,2-b]pyridazine-3-carbonitrile] came in with a half-maximal inhibitory concentration (IC50) of 3 nM. This molecule had an EC50 in the assay on TNFα (Monocyte) of 95 nM.
